Test results as given in PMC9957770, “Mass spectrometry imaging–based assays for aminotransferase activity reveal a broad substrate spectrum for a previously uncharacterized enzyme” (The Journal of Biological Chemistry, 2023).

Biological target: T1, AtTAT1 (Arabidopsis thaliana, UniProt Q9FN30)
T1 construct: gene At5g53970; pET28a construct of Wang et al. (2016), His-tagged, expressed in E. coli Rosetta-2 (DE3), HisTrap purified
T1 sequence (Q9FN30 1-414): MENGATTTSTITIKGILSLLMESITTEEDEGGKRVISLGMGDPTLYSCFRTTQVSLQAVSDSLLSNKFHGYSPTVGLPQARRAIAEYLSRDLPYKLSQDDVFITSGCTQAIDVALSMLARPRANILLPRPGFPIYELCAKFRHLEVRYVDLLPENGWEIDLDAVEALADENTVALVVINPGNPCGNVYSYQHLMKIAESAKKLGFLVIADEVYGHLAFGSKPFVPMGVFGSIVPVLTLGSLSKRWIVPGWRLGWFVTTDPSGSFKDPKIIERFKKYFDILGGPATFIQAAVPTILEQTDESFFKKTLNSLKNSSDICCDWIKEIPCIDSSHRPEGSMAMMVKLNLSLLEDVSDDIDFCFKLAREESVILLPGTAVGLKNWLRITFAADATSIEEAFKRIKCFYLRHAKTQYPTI
Assay: oxime tagging with NIMS mass spectrometry imaging
Type: biochemical
Conditions: 10 mM amino donor, 6 mM alpha-ketoglutarate, 0.5 mM PLP, 100 mM HEPES, final pH 7.6 to 8.0, 30 °C, 60 min

| SMILES | oxime tagging with NIMS mass spectrometry imaging |
| --- | --- |
| N[C@@H](Cc1ccc(O)cc1)C(=O)O [tyrosine] | AtTAT1 can use Tyr, histidine (His), leucine (Leu), methionine (Met), phenylalanine (Phe), and tryptophan (Trp) |
| N[C@@H](Cc1ccccc1)C(=O)O [phenylalanine] | AtTAT1 can use Tyr, histidine (His), leucine (Leu), methionine (Met), phenylalanine (Phe), and tryptophan (Trp) |
